# Where two headings read alike, the source gives them in different places.
# Assays:
# in vivo = conditions: monkey
# [1] = Phase 1 single- and multiple-ascending dose study, compound 1 plasma PK in healthy participants
# [2] = Phase 1 study, safety and tolerability in healthy participants
# [3] = Urine PK and renal clearance of compound 1, Phase 1 study
# [4] = human, in vivo, 500 mg
# [5] = Intracellular PK of compound A (GS-443902) in PBMCs, Phase 1 study; conditions: healthy participants
# [6] = human, in vivo
# [7] = both, human, in vivo
# [8] = human, in vivo; remark: listed apart in the source
# Description: To note, eGFR was estimated using Modification of Diet in Renal Disease (MDRD) equation shown below. Furthermore, participants with kidney failure who were on dialysis are not included in this regression analysis.
smiles,measurement,setting,value
N#C[C@@]1(c2ccc3c(N)ncnn23)O[C@H](CO)[C@@H](O)[C@H]1O [compound 1],AUC(0-t),in vivo,18200 to 36400 ng·h/mL
"CC(C)C(=O)OC[C@H]1O[C@@](C#N)(c2ccc3c(N)ncnn23)[C@H](O)[C@@H]1O [compound 16, obeldesivir]",target therapeutic exposures of plasma compound 1 and intracellular compound A,"[1]; 900 mg QD and 500 mg BID for 5 days, respectively",reached or exceeded
same,dose proportionality of compound 1 PK,[1]; 1600 mg dose,less than dose-proportional increases
same,dose proportionality of compound 1 PK,[1]; 100 to 900 mg range,linear and dose-proportional PK
same,compound 16 prodrug levels in plasma,[1]; healthy participants,either undetectable or low and transient
same,AE,[2]; 500 mg BID (n = 6),2 n
same,AE related to study drug,[2]; 500 mg BID (n = 6),1 n
same,Grade 2 creatinine clearance decrease,[2]; 500 mg BID (n = 6),0 n
same,Grade 2 laboratory abnormalities,[2]; 500 mg BID (n = 6),0 n
same,Grade 3 laboratory abnormalities,[2]; 500 mg BID (n = 6),0 n
same,Grade 3 lipase increase,[2]; 500 mg BID (n = 6),0 n
same,Grade ≥3 AE,[2]; 500 mg BID (n = 6),0 n
same,AE,[2]; 900 mg QD (n = 6),1 n
same,AE related to study drug,[2]; 900 mg QD (n = 6),0 n
same,Grade 2 creatinine clearance decrease,[2]; 900 mg QD (n = 6),2 n
same,Grade 2 laboratory abnormalities,[2]; 900 mg QD (n = 6),2 n
same,Grade 3 laboratory abnormalities,[2]; 900 mg QD (n = 6),0 n
same,Grade 3 lipase increase,[2]; 900 mg QD (n = 6),0 n
same,Grade ≥3 AE,[2]; 900 mg QD (n = 6),0 n
same,participants with headache (Grade 1) attributed to study drug,"[2]; 2 of 8 participants, Cohort 5 (500 mg BID for 5 days)",25%
same,participants with contact dermatitis,[2]; 2 of 48 participants,4.2%
same,participants with study drug-related AEs (headaches),[2]; 2 of 58 participants who received compound 16,3.4%
same,participants with headache,[2]; 3 of 48 participants,6.3%
same,participants with decreased creatinine clearance,"[2]; 6 of 8 participants, Cohort 4 (1,600 mg single dose)",75%
same,participants with treatment-emergent adverse events (TEAEs),"[2]; 10 of 48 participants, compound 16 or placebo, Cohorts 1-6",21%
same,participants with decreased creatinine clearance,[2]; 13 of 48 participants overall,27%
same,participants with a decrease in creatinine clearance,[2]; 18 of 58 participants who received compound 16,31%
same,participants with graded postbaseline laboratory abnormalities,[2]; 25 of 48 participants,52.1%
same,Grade 3 or higher AEs,"[2]; 48 participants, Cohorts 1-6",no Grade 3 or higher AEs
same,serious AEs,"[2]; 48 participants, Cohorts 1-6",no serious AEs
same,Grade 3 laboratory abnormality (lipase elevation at Day 3),[2]; Cohort 2 (300 mg single dose),one Grade 3 laboratory abnormality
same,"changes in vital signs, electrocardiograms (ECGs), visual acuity, or fundoscopic examinations",[2]; Cohorts 1-6,no clinically relevant changes
same,safety and tolerability,"[2]; Example 2, Cohorts 1-6, compound 16 or placebo",safe and well tolerated
same,safety and tolerability,"[2]; Example 4, healthy participants",safe and well tolerated
same,AE,[2]; Fasted 500 mg (n = 11),3 n
same,AE related to study drug,[2]; Fasted 500 mg (n = 11),1 n
same,Grade 2 creatinine clearance decrease,[2]; Fasted 500 mg (n = 11),2 n
same,Grade 2 laboratory abnormalities,[2]; Fasted 500 mg (n = 11),2 n
same,Grade 3 laboratory abnormalities,[2]; Fasted 500 mg (n = 11),0 n
same,Grade 3 lipase increase,[2]; Fasted 500 mg (n = 11),0 n
same,Grade ≥3 AE,[2]; Fasted 500 mg (n = 11),0 n
same,AE,[2]; Fed 500 mg (n = 11),1 n
same,AE related to study drug,[2]; Fed 500 mg (n = 11),0 n
same,Grade 2 creatinine clearance decrease,[2]; Fed 500 mg (n = 11),5 n
same,Grade 2 laboratory abnormalities,[2]; Fed 500 mg (n = 11),5 n
same,Grade 3 laboratory abnormalities,[2]; Fed 500 mg (n = 11),0 n
same,Grade 3 lipase increase,[2]; Fed 500 mg (n = 11),0 n
same,Grade ≥3 AE,[2]; Fed 500 mg (n = 11),0 n
same,AE,[2]; single dose 100 mg (n = 6),1 n
same,AE related to study drug,[2]; single dose 100 mg (n = 6),0 n
same,Grade 2 creatinine clearance decrease,[2]; single dose 100 mg (n = 6),0 n
same,Grade 2 laboratory abnormalities,[2]; single dose 100 mg (n = 6),1 n
same,Grade 3 laboratory abnormalities,[2]; single dose 100 mg (n = 6),0 n
same,Grade 3 lipase increase,[2]; single dose 100 mg (n = 6),0 n
same,Grade ≥3 AE,[2]; single dose 100 mg (n = 6),0 n
same,AE,[2]; single dose 300 mg (n = 6),0 n
same,AE related to study drug,[2]; single dose 300 mg (n = 6),0 n
same,Grade 2 creatinine clearance decrease,[2]; single dose 300 mg (n = 6),1 n
same,Grade 2 laboratory abnormalities,[2]; single dose 300 mg (n = 6),1 n
same,Grade 3 laboratory abnormalities,[2]; single dose 300 mg (n = 6),1 n
same,Grade 3 lipase increase,[2]; single dose 300 mg (n = 6),1 n
same,Grade ≥3 AE,[2]; single dose 300 mg (n = 6),0 n
same,AE,[2]; single dose 900 mg (n = 6),0 n
same,AE related to study drug,[2]; single dose 900 mg (n = 6),0 n
same,Grade 2 creatinine clearance decrease,[2]; single dose 900 mg (n = 6),2 n
same,Grade 2 laboratory abnormalities,[2]; single dose 900 mg (n = 6),2 n
same,Grade 3 laboratory abnormalities,[2]; single dose 900 mg (n = 6),0 n
same,Grade 3 lipase increase,[2]; single dose 900 mg (n = 6),0 n
same,Grade ≥3 AE,[2]; single dose 900 mg (n = 6),0 n
same,AE,[2]; single dose 1600 mg (n = 6),2 n
same,AE related to study drug,[2]; single dose 1600 mg (n = 6),0 n
same,Grade 2 creatinine clearance decrease,[2]; single dose 1600 mg (n = 6),6 n
same,Grade 2 laboratory abnormalities,[2]; single dose 1600 mg (n = 6),6 n
same,Grade 3 laboratory abnormalities,[2]; single dose 1600 mg (n = 6),0 n
same,Grade 3 lipase increase,[2]; single dose 1600 mg (n = 6),0 n
same,Grade ≥3 AE,[2]; single dose 1600 mg (n = 6),0 n
same,compound 16 in urine,[3]; in vivo,not detectable
same,Compound 1 plasma AUC0-24,[4],"20,903 h · ng/mL"
same,Compound 1 plasma AUCinf,[4],"22,100 h · ng/mL"
same,Compound 1 plasma AUClast,[4],"22,000 h · ng/mL"
same,Compound 1 plasma Cmax,[4],3600 ng/mL
same,Compound 1 plasma t1/2,[4],6.3 h
same,intracellular concentrations of compound A in PBMCs versus dose,[5],Dose-proportional increases
same,compound 1 metabolite renal clearance,[6],150 to 180 mL/min
same,compound 1 terminal plasma elimination half-life,[7],6 to 7 h
same,Compound 1 plasma AUC (AUCinf),[7]; 100 mg,3700 ng·h/mL
same,Compound 1 plasma Cmax,[7]; 100 mg,570 ng/mL
same,Compound 1 plasma t1/2,[7]; 100 mg,5.85 h
same,Compound 1 plasma AUC (AUCinf),[7]; 300 mg,"10,400 h · ng/mL"
same,Compound 1 plasma Cmax,[7]; 300 mg,1830 ng/mL
same,Compound 1 plasma Tmax,[7]; 300 mg,0.78 h
same,Compound 1 plasma Cmax,[7]; 500 mg,3820 ng/mL
same,Compound 1 plasma AUC (AUCD1),[7]; 900 mg,"32,000 h · ng/mL"
same,Compound 1 plasma AUC (AUCinf),[7]; 900 mg,"34,600 h · ng/mL"
same,Compound 1 plasma AUC (AUCtau),[7]; 900 mg,"35,700 h · ng/mL"
same,Compound 1 plasma Tmax,[7]; 900 mg,1.5 h
same,Compound 1 plasma t1/2,[7]; 900 mg,7.36 h
same,Compound 1 plasma AUC (AUCinf),[7]; 1600 mg,"48,300 h · ng/mL"
same,Compound 1 plasma Cmax,[7]; 1600 mg,7170 ng/mL
same,Compound 1 plasma Tmax,[7]; 1600 mg,1.5 h
same,Compound 1 plasma t1/2,[7]; 1600 mg,15.7 h
same,plasma half-life of metabolite compound 1,[7]; po,~6 h
CCC(CC)COC(=O)[C@H](C)N[P@](=O)(OC[C@H]1O[C@@](C#N)(c2ccc3c(N)ncnn23)[C@H](O)[C@@H]1O)Oc1ccccc1 [remdesivir],plasma increase of compound 1 AUCinf,[8],~35%
same,plasma increase of compound 1 Cmax,[8],~10%
same,compound 1 renal clearance (CLr) after remdesivir or compound 16 administration,[3]; amount excreted in urine over the corresponding plasma AUC,comparable
